Reference: patent US12281121B2, “N-containing heteroaryl derivative and pharmaceutical composition comprising same as active ingredient for prevention or treatment of cancer” (VORONOI Inc., priority 2019, dated 2025)

Columns and labels:
Ba/F3 (naive) cells = assay: Cell proliferation inhibition, CellTiter-Glo; format: cell-based; conditions: Mus musculus, BaF3; Ba/F3 not transduced, 72 hours
Procedure, shortened: (§1)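 Ba/F3 lines (naive or RET-fusion-transduced, IL-3 medium) and LC-2/ad cells exposed 72 h to compound, 12 three-fold dilutions spanning 0.3 nM–50 μM final. Viability read by CellTiter-Glo luminescence, in triplicate; GI50 derived from growth ratio (%) versus control.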

[1] = test system: Ba/F3 CCDC6-RET (WT) cells; assay: Cell proliferation inhibition, CellTiter-Glo; format: cell-based; conditions: BaF3/CCDC6-RET, 72 hours
Procedure, shortened: as §1

[2] = test system: Ba/F3 KIF5B-RET (V804M) cells; assay: Cell proliferation inhibition, CellTiter-Glo; format: cell-based; conditions: Mus musculus, BaF3, 72 hours
Procedure, shortened: as §1

[3] = test system: Ba/F3 KIF5B-RET (WT) cells; assay: Cell proliferation inhibition, CellTiter-Glo; format: cell-based; conditions: Mus musculus, BaF3, 72 hours
Procedure, shortened: as §1

[4] = test system: LC-2/ad cells (with CCDC6-RET gene); assay: Cell proliferation inhibition, CellTiter-Glo; format: cell-based; conditions: Homo sapiens; LC-2/ad lung cancer cell line, 72 hours
Procedure, shortened: as §1

TT cells = assay: Cell proliferation inhibition, CellTiter-Glo; format: cell-based; conditions: Homo sapiens; TT thyroid cancer cell line, 72 hours
[5] = target: T1, ABL1(H396P)-nonphosphorylated (Homo sapiens, UniProt P00519, H396P); assay: ScanMAX Kinase analysis panel (DiscoverX); format: binding; conditions: read-out: adjusted percentage (% control)
T1 construct: purchased DiscoverX
Method: (§2) The following experiment was performed in order to evaluate the inhibitory activity of the compound according to the present invention against more enzymes. Specifically, for Examples 1 and 3 selected among the Example compounds of the present invention, the enzyme (kinase) selectivity was set to be measured by commissioning DiscoverX, and an experiment was conducted using a ScanMAX™ Kinase analysis panel. In this case, the concentration of the drug treated with the enzyme was set to 1 μM in DMSO, the adjusted percentage (% control) was determined in the same manner as in the following Equation 1, and the results are shown in the following Table 3. (Example compound−Positive control)/(Negative control−Positive control)×100 [Equation 1]
(§3) In addition, the enzyme selectivity of the present invention was determined to be active against the corresponding enzyme when the adjusted percentage was <35% (that is, less than 35%).

[6] = target: T2, ABL1(M351T)-phosphorylated (Homo sapiens, UniProt P00519, M351T); assay: ScanMAX Kinase analysis panel (DiscoverX); format: binding; conditions: read-out: adjusted percentage (% control)
T2 construct: purchased DiscoverX
Method: as §2, §3

AMPK-alpha1 = target: T3, AMPK-alpha1 (Homo sapiens, UniProt Q13131); assay: ScanMAX Kinase analysis panel (DiscoverX); format: binding; conditions: read-out: adjusted percentage (% control)
T3 construct: purchased DiscoverX
T3 sequence (Q13131 whole entry): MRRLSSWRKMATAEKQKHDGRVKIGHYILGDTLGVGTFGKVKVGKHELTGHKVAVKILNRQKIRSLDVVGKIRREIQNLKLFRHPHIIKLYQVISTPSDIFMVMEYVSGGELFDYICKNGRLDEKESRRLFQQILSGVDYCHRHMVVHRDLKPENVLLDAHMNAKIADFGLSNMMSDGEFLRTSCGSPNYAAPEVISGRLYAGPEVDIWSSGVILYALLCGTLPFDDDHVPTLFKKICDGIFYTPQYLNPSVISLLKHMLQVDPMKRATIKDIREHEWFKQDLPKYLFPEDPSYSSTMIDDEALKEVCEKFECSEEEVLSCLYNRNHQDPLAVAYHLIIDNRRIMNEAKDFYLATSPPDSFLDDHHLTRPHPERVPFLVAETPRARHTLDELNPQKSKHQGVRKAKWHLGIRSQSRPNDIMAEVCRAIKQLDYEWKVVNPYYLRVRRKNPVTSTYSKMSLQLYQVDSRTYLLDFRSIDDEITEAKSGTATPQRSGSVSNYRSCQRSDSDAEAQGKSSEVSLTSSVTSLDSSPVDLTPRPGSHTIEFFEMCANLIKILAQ
Method: as §2, §3

AURKA = target: T4, AURKA (Homo sapiens, UniProt O14965); assay: ScanMAX Kinase analysis panel (DiscoverX); format: binding; conditions: read-out: adjusted percentage (% control)
T4 construct: purchased DiscoverX
Method: as §2, §3

AXL = target: T5, AXL (Homo sapiens, UniProt P30530); assay: ScanMAX Kinase analysis panel (DiscoverX); format: binding; conditions: read-out: adjusted percentage (% control)
T5 construct: purchased DiscoverX
T5 sequence (P30530 26-894): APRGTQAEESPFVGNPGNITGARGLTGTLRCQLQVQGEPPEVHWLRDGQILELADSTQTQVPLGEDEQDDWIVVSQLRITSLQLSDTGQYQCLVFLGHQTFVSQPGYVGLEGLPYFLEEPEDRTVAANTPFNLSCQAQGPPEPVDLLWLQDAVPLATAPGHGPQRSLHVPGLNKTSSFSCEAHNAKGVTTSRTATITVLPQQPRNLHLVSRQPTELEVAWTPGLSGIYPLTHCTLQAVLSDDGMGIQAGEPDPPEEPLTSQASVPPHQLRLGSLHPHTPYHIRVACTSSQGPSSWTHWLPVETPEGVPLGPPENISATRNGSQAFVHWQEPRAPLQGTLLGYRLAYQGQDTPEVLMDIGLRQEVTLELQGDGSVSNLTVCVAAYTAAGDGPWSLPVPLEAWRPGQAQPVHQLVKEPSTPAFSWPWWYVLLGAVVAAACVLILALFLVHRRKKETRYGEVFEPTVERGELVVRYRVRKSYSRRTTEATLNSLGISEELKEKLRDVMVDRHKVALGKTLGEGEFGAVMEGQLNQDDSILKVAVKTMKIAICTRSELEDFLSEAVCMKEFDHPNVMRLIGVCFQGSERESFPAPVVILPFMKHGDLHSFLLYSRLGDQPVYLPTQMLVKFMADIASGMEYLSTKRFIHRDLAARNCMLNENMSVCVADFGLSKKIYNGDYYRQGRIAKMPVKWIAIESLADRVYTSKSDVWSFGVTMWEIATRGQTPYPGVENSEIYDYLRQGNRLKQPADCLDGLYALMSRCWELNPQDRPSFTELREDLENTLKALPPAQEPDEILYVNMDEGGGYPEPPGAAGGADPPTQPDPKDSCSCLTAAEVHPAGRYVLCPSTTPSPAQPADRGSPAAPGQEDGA
Method: as §2, §3

BLK = target: T6, BLK (Homo sapiens, UniProt P51451); assay: ScanMAX Kinase analysis panel (DiscoverX); format: binding; conditions: read-out: adjusted percentage (% control)
T6 construct: purchased DiscoverX
T6 sequence (P51451 whole entry): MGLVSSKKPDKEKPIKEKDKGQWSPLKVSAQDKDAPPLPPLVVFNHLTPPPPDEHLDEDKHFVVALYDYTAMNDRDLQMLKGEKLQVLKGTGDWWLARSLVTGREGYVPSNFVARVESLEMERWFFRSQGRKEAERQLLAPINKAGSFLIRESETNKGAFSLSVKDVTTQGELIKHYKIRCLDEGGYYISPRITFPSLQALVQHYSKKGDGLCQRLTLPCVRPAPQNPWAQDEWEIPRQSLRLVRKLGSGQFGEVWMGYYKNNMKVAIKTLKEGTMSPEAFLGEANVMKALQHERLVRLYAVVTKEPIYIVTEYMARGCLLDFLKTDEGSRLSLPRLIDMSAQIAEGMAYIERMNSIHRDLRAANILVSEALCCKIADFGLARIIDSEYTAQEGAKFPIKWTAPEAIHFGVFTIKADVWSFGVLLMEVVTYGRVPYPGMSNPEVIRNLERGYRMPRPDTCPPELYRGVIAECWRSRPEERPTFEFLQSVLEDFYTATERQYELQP
Method: as §2, §3

DDR2 = target: T7, DDR2 (Homo sapiens, UniProt Q16832); assay: ScanMAX Kinase analysis panel (DiscoverX); format: binding; conditions: read-out: adjusted percentage (% control)
T7 construct: purchased DiscoverX
T7 sequence (Q16832 22-855): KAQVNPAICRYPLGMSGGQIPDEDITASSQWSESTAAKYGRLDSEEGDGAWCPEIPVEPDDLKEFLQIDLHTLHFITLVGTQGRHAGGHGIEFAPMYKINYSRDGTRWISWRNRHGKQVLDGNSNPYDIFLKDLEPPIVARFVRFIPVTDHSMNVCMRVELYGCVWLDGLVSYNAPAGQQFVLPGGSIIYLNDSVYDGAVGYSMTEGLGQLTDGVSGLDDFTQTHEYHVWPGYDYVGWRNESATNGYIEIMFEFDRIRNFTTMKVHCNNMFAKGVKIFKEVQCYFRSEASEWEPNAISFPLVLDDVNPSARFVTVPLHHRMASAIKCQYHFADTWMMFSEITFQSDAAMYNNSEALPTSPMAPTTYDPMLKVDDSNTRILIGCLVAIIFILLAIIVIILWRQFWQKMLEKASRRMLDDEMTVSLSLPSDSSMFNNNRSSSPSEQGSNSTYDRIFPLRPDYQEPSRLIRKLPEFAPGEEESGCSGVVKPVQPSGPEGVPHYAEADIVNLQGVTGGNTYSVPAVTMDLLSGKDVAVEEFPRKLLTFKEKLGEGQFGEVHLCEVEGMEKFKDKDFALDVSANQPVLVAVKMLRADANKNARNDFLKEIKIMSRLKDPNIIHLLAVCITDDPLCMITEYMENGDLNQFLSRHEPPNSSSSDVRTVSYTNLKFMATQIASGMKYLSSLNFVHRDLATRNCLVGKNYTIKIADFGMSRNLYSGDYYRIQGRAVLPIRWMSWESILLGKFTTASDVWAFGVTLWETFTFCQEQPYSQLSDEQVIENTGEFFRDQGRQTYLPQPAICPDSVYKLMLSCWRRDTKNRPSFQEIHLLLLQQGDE
Method: as §2, §3

DLK = target: T8, DLK (Homo sapiens, UniProt Q12852); assay: ScanMAX Kinase analysis panel (DiscoverX); format: binding; conditions: read-out: adjusted percentage (% control)
T8 construct: purchased DiscoverX
Method: as §2, §3

EPHB6 = target: T9, EPHB6 (Homo sapiens, UniProt O15197); assay: ScanMAX Kinase analysis panel (DiscoverX); format: binding; conditions: read-out: adjusted percentage (% control)
T9 construct: purchased DiscoverX ScanMAX Kinase analysis panel
Method: as §2, §3

FLT3(K663Q) = target: T10, FLT3(K663Q) (Homo sapiens, UniProt P36888, K663Q); assay: ScanMAX Kinase analysis panel (DiscoverX); format: binding; conditions: read-out: adjusted percentage (% control)
T10 construct: purchased DiscoverX ScanMAX Kinase analysis panel
Method: as §2, §3

FLT3(N841I) = target: T11, FLT3(N841I) (Homo sapiens, UniProt P36888, N841I); assay: ScanMAX Kinase analysis panel (DiscoverX); format: binding; conditions: read-out: adjusted percentage (% control)
T11 construct: purchased DiscoverX ScanMAX Kinase analysis panel
Method: as §2, §3

[7] = target: T12, JAK2(JH1domain-catalytic) (Homo sapiens, UniProt O60674); assay: ScanMAX Kinase analysis panel (DiscoverX); format: binding; conditions: read-out: adjusted percentage (% control)
T12 construct: JAK2(JH1domain-catalytic); purchased DiscoverX ScanMAX Kinase analysis panel
T12 sequence (O60674 849-1124 limits assumed): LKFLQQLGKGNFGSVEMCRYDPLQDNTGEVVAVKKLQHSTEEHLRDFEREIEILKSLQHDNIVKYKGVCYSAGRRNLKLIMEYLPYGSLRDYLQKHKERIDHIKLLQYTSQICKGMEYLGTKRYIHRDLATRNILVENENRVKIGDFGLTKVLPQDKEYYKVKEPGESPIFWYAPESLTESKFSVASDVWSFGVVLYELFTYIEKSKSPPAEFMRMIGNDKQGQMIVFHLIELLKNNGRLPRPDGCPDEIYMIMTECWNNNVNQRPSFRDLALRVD
Method: as §2, §3

PLK4 = target: T13, PLK4 (Homo sapiens, UniProt O00444); assay: ScanMAX Kinase analysis panel (DiscoverX); format: binding; conditions: read-out: adjusted percentage (% control)
T13 construct: purchased DiscoverX ScanMAX Kinase analysis panel
Method: as §2, §3

RET = target: T14, RET (Homo sapiens, UniProt P07949); assay: ScanMAX Kinase analysis panel (DiscoverX); format: binding; conditions: read-out: adjusted percentage (% control)
T14 construct: purchased DiscoverX ScanMAX Kinase analysis panel
T14 sequence (P07949 29-1114): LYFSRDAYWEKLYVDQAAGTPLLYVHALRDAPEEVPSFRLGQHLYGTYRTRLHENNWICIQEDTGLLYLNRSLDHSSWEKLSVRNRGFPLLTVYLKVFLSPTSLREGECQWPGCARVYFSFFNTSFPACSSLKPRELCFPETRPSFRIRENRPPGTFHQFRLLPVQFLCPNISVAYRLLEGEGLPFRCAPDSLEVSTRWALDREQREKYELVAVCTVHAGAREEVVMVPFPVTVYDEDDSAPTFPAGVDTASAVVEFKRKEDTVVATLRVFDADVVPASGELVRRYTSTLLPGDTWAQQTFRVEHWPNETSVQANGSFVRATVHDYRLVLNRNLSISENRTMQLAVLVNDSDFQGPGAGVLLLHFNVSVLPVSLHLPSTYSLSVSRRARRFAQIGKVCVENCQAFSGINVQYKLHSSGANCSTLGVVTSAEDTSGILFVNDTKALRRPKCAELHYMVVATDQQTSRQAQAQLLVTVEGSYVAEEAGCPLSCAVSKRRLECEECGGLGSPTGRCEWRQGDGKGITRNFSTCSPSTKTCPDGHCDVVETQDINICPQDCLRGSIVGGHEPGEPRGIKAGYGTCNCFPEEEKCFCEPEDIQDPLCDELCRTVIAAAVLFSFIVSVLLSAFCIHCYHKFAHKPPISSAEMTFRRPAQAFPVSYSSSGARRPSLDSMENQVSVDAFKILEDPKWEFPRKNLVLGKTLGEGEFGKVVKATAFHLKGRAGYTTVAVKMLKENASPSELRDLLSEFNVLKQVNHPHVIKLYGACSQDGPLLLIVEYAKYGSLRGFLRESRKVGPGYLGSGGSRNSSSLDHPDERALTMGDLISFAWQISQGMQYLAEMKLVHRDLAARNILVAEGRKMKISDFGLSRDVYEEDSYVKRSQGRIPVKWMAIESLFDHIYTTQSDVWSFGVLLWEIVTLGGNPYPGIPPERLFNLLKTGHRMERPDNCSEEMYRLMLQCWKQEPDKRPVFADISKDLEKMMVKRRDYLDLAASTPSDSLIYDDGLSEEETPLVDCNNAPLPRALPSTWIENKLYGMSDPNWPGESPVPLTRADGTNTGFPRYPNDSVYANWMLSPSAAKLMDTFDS
Method: as §2, §3

RIOK3 = target: T15, RIOK3 (Homo sapiens, UniProt O14730); assay: ScanMAX Kinase analysis panel (DiscoverX); format: binding; conditions: read-out: adjusted percentage (% control)
T15 construct: purchased DiscoverX ScanMAX Kinase analysis panel
Method: as §2, §3

SYK = target: T16, SYK (Homo sapiens, UniProt P43405); assay: ScanMAX Kinase analysis panel (DiscoverX); format: binding; conditions: read-out: adjusted percentage (% control)
T16 construct: purchased DiscoverX ScanMAX Kinase analysis panel
Method: as §2, §3

TRKA = target: T17, TRKA (Homo sapiens, UniProt P04629); assay: ScanMAX Kinase analysis panel (DiscoverX); format: binding; conditions: read-out: adjusted percentage (% control)
T17 construct: purchased DiscoverX ScanMAX Kinase analysis panel
Method: as §2, §3

[8] = target: T18, TYK2(JH1domain-catalytic) (Homo sapiens, UniProt P29597); assay: ScanMAX Kinase analysis panel (DiscoverX); format: binding; conditions: read-out: adjusted percentage (% control)
T18 construct: TYK2(JH1domain-catalytic); purchased DiscoverX ScanMAX Kinase analysis panel
T18 sequence (P29597 897-1176 limits assumed): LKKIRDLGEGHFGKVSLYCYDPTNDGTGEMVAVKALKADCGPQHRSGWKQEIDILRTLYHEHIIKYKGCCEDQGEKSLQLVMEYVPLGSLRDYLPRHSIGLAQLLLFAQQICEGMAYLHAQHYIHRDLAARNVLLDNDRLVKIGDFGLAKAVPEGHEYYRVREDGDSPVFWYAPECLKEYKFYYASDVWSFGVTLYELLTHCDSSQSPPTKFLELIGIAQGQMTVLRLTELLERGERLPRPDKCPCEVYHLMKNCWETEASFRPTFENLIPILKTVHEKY
Method: as §2, §3

YES = target: T19, YES (Homo sapiens, UniProt P07947); assay: ScanMAX Kinase analysis panel (DiscoverX); format: binding; conditions: read-out: adjusted percentage (% control)
T19 construct: purchased DiscoverX ScanMAX Kinase analysis panel
T19 sequence (P07947 whole entry): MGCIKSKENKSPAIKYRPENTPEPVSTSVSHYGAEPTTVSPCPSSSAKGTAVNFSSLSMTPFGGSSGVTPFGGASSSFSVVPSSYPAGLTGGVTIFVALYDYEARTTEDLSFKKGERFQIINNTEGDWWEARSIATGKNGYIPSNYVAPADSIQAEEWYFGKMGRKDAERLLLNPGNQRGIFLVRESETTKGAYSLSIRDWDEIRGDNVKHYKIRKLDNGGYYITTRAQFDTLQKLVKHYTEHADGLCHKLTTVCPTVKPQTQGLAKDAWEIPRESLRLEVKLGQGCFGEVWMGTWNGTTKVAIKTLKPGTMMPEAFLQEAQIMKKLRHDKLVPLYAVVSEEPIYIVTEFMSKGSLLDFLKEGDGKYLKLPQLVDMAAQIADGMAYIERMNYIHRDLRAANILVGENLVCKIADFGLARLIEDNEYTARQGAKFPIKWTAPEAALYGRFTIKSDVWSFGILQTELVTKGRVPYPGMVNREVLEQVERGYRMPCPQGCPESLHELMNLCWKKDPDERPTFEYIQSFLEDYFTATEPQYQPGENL
Method: as §2, §3

YSK4 = target: T20, YSK4 (Homo sapiens, UniProt Q56UN5); assay: ScanMAX Kinase analysis panel (DiscoverX); format: binding; conditions: read-out: adjusted percentage (% control)
T20 construct: purchased DiscoverX ScanMAX Kinase analysis panel
Method: as §2, §3

SMILES	GI50 (Ba/F3 (naive) cells) [nM]	GI50 [1] [nM]	GI50 [2] [nM]	GI50 [3] [nM]	GI50 [4] [nM]	GI50 (TT cells) [nM]	remaining binding at 1 µM [5] [%]	remaining binding at 1 µM [6] [%]	remaining binding at 1 µM (AMPK-alpha1) [%]	remaining binding at 1 µM (AURKA) [%]	remaining binding at 1 µM (AXL) [%]	remaining binding at 1 µM (BLK) [%]	remaining binding at 1 µM (DDR2) [%]	remaining binding at 1 µM (DLK) [%]	remaining binding at 1 µM (EPHB6) [%]	remaining binding at 1 µM (FLT3(K663Q)) [%]	remaining binding at 1 µM (FLT3(N841I)) [%]	remaining binding at 1 µM [7] [%]	remaining binding at 1 µM (PLK4) [%]	remaining binding at 1 µM (RET) [%]	other results
COc1ccc(CN2C3CC2CN(c2ccc(-c4nc(Nc5cc(C)[nH]n5)c5occc5n4)cn2)C3)cn1 [Example 1, 2-(6-(6-((6-methoxypyridin-3-yl)methyl)-3,6-diazabicyclo[3.1.1]heptan-3-yl)pyridin-3-yl)-N-(5-methyl-1H-pyrazol-3-yl)furo[3,2-d]pyrimidin-4-amine]	4900	59	19	19	14	88	10	16	26	4.1	1.2	1.4	16	29	2.6	2.2	0	0.1	1.3	0	remaining binding at 1 µM (RIOK3): 13%; remaining binding at 1 µM (SYK): 3.1%; remaining binding at 1 µM (TRKA): 0%; remaining binding at 1 µM [8]: 0.2%; remaining binding at 1 µM (YES): 11%; remaining binding at 1 µM (YSK4): 6.2%
COc1ccc(CN2C3CC2CN(c2ccc(-c4nc(Nc5cc(C)[nH]n5)c5ccccc5n4)cn2)C3)cn1 [Example 3, 2-(6-(6-((6-methoxypyridin-3-yl)methyl)-3,6-diazabicyclo [3.1.1]heptan-3-yl)pyridin-3-yl)-N-(5-methyl-1H-pyrazol-3-yl)quinazolin-4-amine]	2300	51	3	13	60	30	2.5	15	33	2.2	0	0.05	30	19	4.8	0.1	0	0	1.2	0	remaining binding at 1 µM (RIOK3): 30%; remaining binding at 1 µM (SYK): 2.2%; remaining binding at 1 µM (TRKA): 0%; remaining binding at 1 µM [8]: 5.3%; remaining binding at 1 µM (YES): 3.8%; remaining binding at 1 µM (YSK4): 5%
